According to patent US11241440B2, “Dihydrooxadiazine compounds for treating infections and cancer” (VALORALIA I MÁS D, SL, priority 2016, dated 2022):
Where two headings read alike, the source gives them in different places.

Assays:
N. carnea = assay: Kirby-Bauer disk diffusion susceptibility test; assay type: cell-based, Nocardia carnea; conditions: N. carnea; 100 μg/disc; zone of inhibition
N. cyriacigeorgica = assay: Kirby-Bauer disk diffusion susceptibility test; assay type: cell-based; conditions: N. cyriacigeorgica; 100 μg/disc; zone of inhibition
T. pulmonis = assay: Kirby-Bauer disk diffusion susceptibility test; assay type: cell-based, Tsukamurella pulmonis; conditions: T. pulmonis; 100 μg/disc; zone of inhibition
S. epidermidis = assay: Kirby-Bauer disk diffusion susceptibility test; assay type: cell-based, Staphylococcus epidermidis; conditions: S. epidermidis; 100 μg/disc; zone of inhibition
S. aureus = assay: Kirby-Bauer disk diffusion susceptibility test; assay type: cell-based, Staphylococcus aureus; conditions: S. aureus; 100 μg/disc; zone of inhibition
[1] = tested on: all species tested (pathogenic bacteria); assay type: cell-based
Aspergillus flavus = assay: EUCAST broth dilution antifungal susceptibility test (MIC); assay type: cell-based; conditions: 100% inhibition, 24 hours at 35° C., dilution range 64 to 0.12 mg/l
Description: (§1) Filamentous fungi and yeasts strains, from clinical origin, were supplied by Microbiology Service from The Princess Hospital, Madrid. They are detailed in Table III. Filamentous fungi and yeast cells suspensions in distilled water was prepared from a culture of 24-48 h, depending on species, in Sabouraud agar. Each suspension was adjusted to a fixed size inoculum of 1-5×10^8 CFU/ml with a spectrophotometer (Ferraro, M J National Committee for Clinical Laboratory Standards. 2000). Antifungal susceptibility tests were developed following the standardized methodology detailed by the European Committee on Antimicrobial Susceptibility Testing (EUCAST) documents 7.2 (method for the determination of broth dilution minimum inhibitory concentrations of antifungal agents for yeasts EDef 7.2) and 9.2 (Method for the determination of broth dilution minimum inhibitory concentrations of antifungal agents for conidia forming foulds). The compound was dissolved in DMSO and diluted with RPMI plates with 2% glucose to pH 7 with MOPS buffer. […] Plates were inoculated with a yeast suspension or filamentous fungal spores (1-5×10^5 cls/ml). The results were evaluated after 24 hours incubation at 35° C. and absorbance reading at 530 nm.

Aspergillus fumigatus = assay: as above; assay type: cell-based; conditions: 100% inhibition, 24 hours at 35° C., dilution range 64 to 0.12 mg/l
Description: as §1

Aspergillus terreus = assay: as above; assay type: cell-based; conditions: 100% inhibition, 24 hours at 35° C., dilution range 64 to 0.12 mg/l
Description: as §1

Candida parapsilosis = assay: as above; assay type: cell-based; conditions: 50% inhibition, 24 hours at 35° C., dilution range 64 to 0.12 mg/l
Description: as §1

Scedosporium prolificans = assay: as above; assay type: cell-based; conditions: 100% inhibition, 24 hours at 35° C., dilution range 64 to 0.12 mg/l
Description: as §1

HIV virus (NL4.3-Ren) = assay: microbe, parasite or virus in culture; assay type: cell-based; conditions: for Viral replication (%): relative to DMSO control, cells not given
[2] = tested on: HIV virus non-recombinant wild type (NL4.3); assay: Inhibition of non-recombinant wild type HIV; assay type: cell-based; conditions: Human immunodeficiency virus 1
[3] = Cellular viability, CellTiter Glo; assay type: cell-based; conditions: human, read-out: CC50 nM (concentration of drug required to kill 50% of cells)
Description: (§2) All assays for assessing anti-HIV activity were taken in parallel to determine cellular viability of the culture in the presence or absence of different concentrations of the isolated molecule. It was followed exactly the same methodology as in the anti-HIV assay except with the addition of complete DMEM medium instead of supernatant viral, in the same proportion, and the detection of the viability was performed with the viability detection kit CellTiter Glo (Promega), following manufacturer instructions. Viability is directly proportional to the luciferase activity obtained. All data are expressed as percentage relative to a control with DMSO at the same concentration. Antiviral activity and toxicity curves were performed to the compound at different concentrations.

MT-2 cells = assay: Cellular viability, CellTiter Glo; assay type: cell-based
Description: as §2

PBMCs = assay: Cellular viability, CellTiter Glo; assay type: cell-based; conditions: PBMCs cells
Description: as §2

[4] = tested on: HIV virus (NL4.3-Ren) and HIV virus pseudotyped with the envelope of VSV (NL4.3-VSV-Luc); assay: Virus entry test, HIV and VSV-pseudotyped HIV in parallel; assay type: cell-based; conditions: NL4.3-Ren and NL4.3-VSV-Luc in parallel
[5] = tested on: recombinant herpesvirus FTKGF; assay: Fluorescence antiviral assay in Vero cells; assay type: cell-based, herpes simplex 1 virus; conditions: 0.01 MOI, 48 hours
Description: In the antiviral assay a special culture plate for fluorescence assays has been used, cultivated with Vero cells (200,000 cells/ml) and infected with the recombinant herpesvirus FTKGF at 0.01 MOI (Multiplicity of infection). For the standard curve (inhibition curve pattern), increasing concentrations of a known inhibitor of HSV infection, the phosphonoacetic acid (PAA), from 0 to 200 μg/ml, were used. The compound was tested at concentrations of […] over the virus. After 48 hours, the fluorescence intensity of FTKGF (reduction in fluorescence levels) in the plate reader Synergy HT Microplate Reader was measured.

PRV-NIA3 = assay type: cell-based, porcine pseudorabies virus (PRV); conditions: compound 2 μM
CAL33 = assay: MTT assay; assay type: cell-based
T98G = assay: MTT assay; assay type: cell-based
From the text: This compound has a purple hue.
All tests are always in triplicate.
In Table VIII, quantification of the best IC50 is shown (concentration of compound that inhibits 50% of cell growth) using GraphPad Prism program.

SK-UT-1 = assay: MTT assay; assay type: cell-based; conditions: Homo sapiens, 48 hours
HOS = assay: MTT assay; assay type: cell-based; conditions: Homo sapiens, 48 hours
[6] = tested on: FTKGF (deficient in thymidine kinase protein); conditions: compound 2 μM

**Q.** Which “Activity (mm), 100 μg/disc” value (N. carnea) does the source give for `CCCCCC1=NN(C(=O)CCO)OC(CCCCC)C1` (centres unmarked) [Compound, 1-(4,6-dipentyl-5,6-dihydro-2H-1,2,3-oxadiazin-2-yl)-3-hydroxypropan-1-one] here?
**A.** 48-50 mm

**Q.** What about the “Activity (mm), 100 μg/disc” value (N. cyriacigeorgica) of the same molecule?
**A.** 35-38 mm

**Q.** And the “Activity (mm), 100 μg/disc” value (T. pulmonis)?
**A.** 49-52 mm

**Q.** What about the “Activity (mm), 100 μg/disc” value (S. epidermidis) of the same molecule?
**A.** 16-18 mm

**Q.** What about the “Activity (mm), 100 μg/disc” value (S. aureus) of the same molecule?
**A.** 20-22 mm

**Q.** And the “kind of antibiotic activity” value [1]?
**A.** bactericidal

**Q.** And the “MIC (minimum inhibitory concentration)” value (Aspergillus flavus)?
**A.** 1

**Q.** And the “MIC (minimum inhibitory concentration)” value (Aspergillus fumigatus)?
**A.** 0.5

**Q.** What about the “MIC (minimum inhibitory concentration)” value (Aspergillus terreus) of the same molecule?
**A.** 0.25

**Q.** And the “MIC (minimum inhibitory concentration)” value (Candida parapsilosis)?
**A.** 0.5

**Q.** And the “MIC (minimum inhibitory concentration)” value (Scedosporium prolificans)?
**A.** 0.5

**Q.** What about the “Viral replication (%)” value (HIV virus (NL4.3-Ren); 0.19 μM) of the same molecule?
**A.** 45%

**Q.** What about the “Viral replication (%)” value (HIV virus (NL4.3-Ren); 0.39 μM) of the same molecule?
**A.** 14%

**Q.** What about the “Viral replication (%)” value (HIV virus (NL4.3-Ren); 0.78 μM) of the same molecule?
**A.** 3%

**Q.** What about the “Viral replication (%)” value (HIV virus (NL4.3-Ren); 1.56 μM) of the same molecule?
**A.** 1%

**Q.** What about the “Viral replication (%)” value (HIV virus (NL4.3-Ren); 3.12 μM) of the same molecule?
**A.** 0%

**Q.** What about the “Viral replication (%)” value (HIV virus (NL4.3-Ren); 6.25 μM) of the same molecule?
**A.** 0%

**Q.** What about the “Viral replication (%)” value (HIV virus (NL4.3-Ren); 12.5 μM) of the same molecule?
**A.** 0%

**Q.** And the “Viral replication (%)” value (HIV virus (NL4.3-Ren); 25 μM)?
**A.** 0%

**Q.** What about the “Viral replication (%)” value (HIV virus (NL4.3-Ren); 50 μM) of the same molecule?
**A.** 0%

**Q.** What about the “Viral replication (%)” value (HIV virus (NL4.3-Ren); 100 μM) of the same molecule?
**A.** 0%

**Q.** What about the IC50 (HIV virus (NL4.3-Ren); Human immunodeficiency virus 1, MT2, read-out: IC50 nM) of the same molecule?
**A.** 243 nM

**Q.** And the IC50 (HIV virus (NL4.3-Ren); Human immunodeficiency virus 1, PBMC, read-out: IC50 nM)?
**A.** 362 nM

**Q.** What about the IC50 [2] of the same molecule?
**A.** 333 nM

**Q.** And the CC50 ([3]; MT-2 cells)?
**A.** 2500 to 5000 nM

**Q.** What about the CC50 ([3]; PBMCs) of the same molecule?
**A.** 2500 to 5000 nM

**Q.** What about the toxicity (MT-2 cells) of the same molecule?
**A.** only in the highest concentrations tested (5 and 10 μM)

**Q.** And the toxicity (PBMCs)?
**A.** only in the highest concentrations tested (5 and 10 μM)

**Q.** And the “inhibition of HIV and VSV-pseudotyped HIV (dependence on virus entry)” value [4]?
**A.** inhibited both viruses with the same potency

**Q.** What about the inhibition at 0.2 µM ([5]; 200 nM) of the same molecule?
**A.** 60%

**Q.** And the inhibition at 0.4 µM ([5]; 400 nM)?
**A.** 92%

**Q.** What about the “reduction of the titer” value (PRV-NIA3) of the same molecule?
**A.** 0.5 logarithms

**Q.** What about the “concentration at which inhibition is obtained” value (CAL33) of the same molecule?
**A.** 10 nM

**Q.** And the “optimal concentration of inhibition” value (CAL33)?
**A.** ≥ 50 nM

**Q.** What about the IC50 (CAL33; Homo sapiens, CAL-33, 48 hours) of the same molecule?
**A.** 42.8 nM

**Q.** And the “concentration at which inhibition is obtained” value (T98G)?
**A.** 50 nM

**Q.** And the “optimal concentration of inhibition” value (T98G)?
**A.** 100 nM

**Q.** What about the IC50 (T98G; Homo sapiens, 48 hours) of the same molecule?
**A.** 106 nM

**Q.** What about the IC50 (SK-UT-1) of the same molecule?
**A.** 199 nM

**Q.** And the IC50 (HOS)?
**A.** 170 nM

**Q.** And the “reduction of the titer” value [6]?
**A.** 2.5 logarithms
